Measured values reported in patent US5453426A, “Sulfur-containing xanthine derivatives as adenosine antagonists” (priority 1994, dated 1995).
Converted amounts (≈) assume the structure as drawn. Each block holds one compound with its values, some of them ahead of it.

Assays:
[1] = molecular target: Nethylcarboxamidoadenosine-stimulated adenylat cyclase; details: PC12 cell membranes; printed in brackets in the A2 Ki column; ref 10b; read-out: Kb for inhibition of N-ethylcarboxamidoadenosine-stimulated adenylate cyclase; cited from earlier work
adenosine receptor = details: background; read-out: Ki-values as adenosine antagonists; cited from earlier work
A1 receptor = details: relative to 8-phenyltheophylline; cited from earlier work
A2 receptor = details: relative to 8-phenyltheophylline; cited from earlier work
A1 adenosine receptors = molecular target: T1, A1 adenosine receptors (Rattus norvegicus, UniProt P25099); test: Inhibition of binding of [3H]N6-phenylisopropyladenosine to A1 adenosine receptors in rat cerebral cortical membranes
T1 construct: A1 adenosine receptors in rat cerebral cortical membranes; from tissue; host or cells: rat cerebral cortex membranes
T1 sequence (P25099 1-326): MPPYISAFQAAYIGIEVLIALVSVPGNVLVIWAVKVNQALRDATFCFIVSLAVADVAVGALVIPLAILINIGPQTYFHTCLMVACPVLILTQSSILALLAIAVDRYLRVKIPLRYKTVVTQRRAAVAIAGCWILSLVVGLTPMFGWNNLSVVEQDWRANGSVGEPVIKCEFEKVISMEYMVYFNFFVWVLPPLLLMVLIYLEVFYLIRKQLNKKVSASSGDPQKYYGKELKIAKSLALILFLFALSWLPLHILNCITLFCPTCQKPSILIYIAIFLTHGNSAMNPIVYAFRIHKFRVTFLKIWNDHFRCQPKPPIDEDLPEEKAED

[2] = Limit of solubility in the A2 binding assay; type: physicochemical; details: binding assay medium
Excerpt: Thus, compound 22 is >285-fold A1 -selective in these binding assays.

A2 adenosine receptors = A2 adenosine receptors (Rattus norvegicus, UniProt P30543); test: Inhibition of binding of [3H]N-ethylcarboxamidoadenosine to A2-adenosine receptors in rat striatal membranes
Sequence of A2 adenosine receptors (P30543 whole entry): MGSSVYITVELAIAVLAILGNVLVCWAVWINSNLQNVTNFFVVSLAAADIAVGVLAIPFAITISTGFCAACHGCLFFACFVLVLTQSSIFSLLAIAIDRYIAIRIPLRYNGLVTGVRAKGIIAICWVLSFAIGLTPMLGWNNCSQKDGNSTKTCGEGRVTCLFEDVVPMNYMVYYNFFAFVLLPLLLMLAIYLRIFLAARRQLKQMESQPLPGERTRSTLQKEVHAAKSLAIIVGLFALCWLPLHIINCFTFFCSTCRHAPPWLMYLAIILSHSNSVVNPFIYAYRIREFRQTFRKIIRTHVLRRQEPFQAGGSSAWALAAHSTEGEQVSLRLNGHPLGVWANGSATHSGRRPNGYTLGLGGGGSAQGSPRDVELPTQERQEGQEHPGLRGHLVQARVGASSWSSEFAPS
Protocol: Affinity at A1 - and A2 -adenosine receptors was measured in competitive binding assays, using as radioligands [^3 H]N^6 -phenylisopropyladenosine^17 (with rat cerebral cortical membranes) and [^3 H]5'-N-ethylcarboxamidoadenosine (with rat striatal membranes),^18 respectively.
N^6 -Cyclopentyladenosine was present at 50 nM to inhibit binding of the ligand at A1 -adenosine receptors. Inhibition of binding by a range of concentrations of xanthines was assessed in triplicate in at least three separate experiments. IC50 -values were converted to Ki-values by the method of Bruns et al,^18 using a conversion factor derived from the affinity of [^3 H]N-ethylcarboxamidoadenosine at A2 receptors and the Cheng-Prusoff equation.^19

SMILES: CCCn1c(=O)c2[nH]c(-c3ccc(OCC(=O)NCCNC)cc3)nc2n(CCC)c1=O [Compound 32]
Kb [1]: 9.3 ± 2.1 nM

SMILES: Cn1c(=O)c2[nH]cnc2n(C)c1=O [Compound 1a, theophylline]
Ki (adenosine receptor): ≥ 10000 nM

SMILES: Cn1c(=O)c2sc(-c3ccccc3)nc2n(C)c1=O
reduction of activity at an A1 receptor by thio-substitution (A1 receptor): 1000 fold
reduction of activity at an A2 receptor by thio-substitution (A2 receptor): ~100 fold

A1-selectivity (A1 adenosine receptors; A1 (rat cortex) versus A2 (rat striatum) binding): > 285 fold
A1-selectivity, in words (A1 adenosine receptors; A1 versus A2 binding, relative to oxygen analogs): a greater margin of A1 -selectivity
Ki (A1 adenosine receptors; rat cortical membranes, [3H]PIA, single determination in triplicate or average of three ± S.E.M., read-out: Ki A1-receptors): 35.1 ± 6 nM
Ki (A2)/Ki (A1) (A1 adenosine receptors; ratio of A2 (rat striatum) to A1 (rat cortex) Ki): > 285
solubility [2]: ~10 µM (≈ 3.34 µg/mL)
Ki (A2 adenosine receptors): > 10000 nM
SMILES: CCCn1c(=O)c2[nH]c(-c3cccs3)nc2n(CCC)c1=S [Compound 22, 1,3-Dipropyl-8-(2-thienyl)-2-thioxanthine]
A2 affinity/potency, in words (A2 adenosine receptors; relative to the analogs named in the text): did not bind measurably to A2 -receptors at its limit of solubility
